Test results reported in patent US9585871B2, “Method for treating and curing leishmaniosis using fexinidazole” (Merial Limited, priority 2013, dated 2017).
Several values for one entry are separate records, joined by “and”; a condition that tells them apart may be missing. Equal values may be shown once. Entries after “also recorded” stand apart in the source; their conditions may differ.

How the values were obtained:
Assay type in all cases: in vivo
[1] = Reproductive toxicity study, rats; conditions: oral 200 mg/kg for 10 days
Text: (§1) Toxicology summary. In mice and rats, the maximum fexinidazole (FEX) dose after oral administration is 10 g/kg of body weight. […] Finally, as regards PK, labeled FEX and its metabolites were excreted within 3 days in the feces (52-58%) and urine (36-40%).

[2] = Reproductive toxicity study, rabbits; conditions: oral 40 mg/kg for 13 days
Text: as §1

[3] = test system: bone marrow micronucleus; assay: Mammalian cell mutagenicity, bone marrow micronucleus study; conditions: all test concentrations (500, 1000 and 2000 mg/kg)
Text: as §1

[4] = test system: L. infantum; assay: Clinical study in dogs infected with L. infantum: Clinical Score; set-up: key: additive score of clinical signs (body condition, lymphadenopathy, etc.); conditions: Glucantime 100 mg/kg dNMA SC or Fexinidazole 60 mg/kg PO once daily Days 0-27
Experimental: (§2) In a clinical study, dogs infected with L. infantum were treated with meglumine antimoniate (GLUCANTIME®, Merial) as a positive control, or FEX (Table 5). Eight blocks of two animals were formed based antibody titers and biological scores. Six dogs in each group were naturally infected by housing them in an endemic area for two years and two dogs in each group were artificially infected by intravenous administration of a known quantity of parasites recovered from the spleen of an infected dog.
(§3) The first group (FEX) was compared to the second group, which was treated with 27 mg/kg GLUCANTIME (meglumine antimoniate, or 100 mg/kg of dNMA) “GLU”), over 28 days.
(§4) Variables. The Clinical Score is an additive score of various clinical signs (body condition, lymphadenopathy, splenomegaly, appetite, behavior, mucous membrane color, dermatopathology, ocular signs, digestive signs, arthropathy) evaluated before treatment and on Days 7, 14, 21, 28, 57, 184, 219, 254, 282, 310, 345, 400 and 436. The Overall Biological Score is an additive score based on the severity of changes in hematology/chemistry values (creatinine, urine protein/creatinine, Hct, globulin, ALAT), evaluated pretreatment and on Days 28, 57, and 181. The L. infantum immunofluorescent antibody titers (IFAT) were determined from samples collected before treatment and on Days 28, 57, and 181. Finally, quantitative PCR (qPCR) for L. infantum was conducted on spleen aspirates collected before treatment and on Days 28, 57, 142, 184, and 373.

[5] = test system: L. infantum; assay: Clinical study in dogs infected with L. infantum: Overall Biological Score; set-up: key: additive score of severity of hematology/chemistry changes; conditions: Glucantime 100 mg/kg dNMA SC or Fexinidazole 60 mg/kg PO once daily Days 0-27
Experimental: as §2, §3, §4

[6] = test system: L. infantum; assay: Clinical study in dogs infected with L. infantum: qPCR on spleen aspirates; conditions: spleen aspirate, Glucantime 100 mg/kg dNMA SC or Fexinidazole 60 mg/kg PO once daily Days 0-27
Experimental: as §2, §3, §4

[7] = test system: L. infantum; assay: Clinical study in dogs infected with L. infantum: overall outcome (cure, relapse, removal of animals); conditions: canines, L. infantum
Experimental: as §2
The first group (FEX) was compared to the second group, which was treated with 27 mg/kg GLUCANTIME (meglumine antimoniate, or 100 mg/kg of dNMA) “GLU”), over 28 days. […]

SMILES: CSc1ccc(OCc2ncc([N+](=O)[O-])n2C)cc1 [Fexinidazole, fexinidazole]
- embryotoxic effects [1]: no embryotoxic effects
- embryotoxic effects [2]: no embryotoxic effects
- mammalian cell mutagenicity, bone marrow micronucleus study [3]: negative
- Clinical Score, group average ([4]; Day 7): 2.8
- Clinical Score ([4]; Day 14, individual dogs): 2 (2×) and 0 (2×) and 3 (3×)
- Clinical Score, group average ([4]; Day 14): 1.6
- Clinical Score ([4]; Day 21, individual dogs): 0 (5×) and 2 (2×)
- Clinical Score, group average ([4]; Day 21): 0.5
- Clinical Score ([4]; Day 28, individual dogs): 0 (4×) and 1 (2×) and 2
- Clinical Score, group average ([4]; Day 28, Group 1 includes D21 data of Block 3 dog carried forward): 0.5
- Clinical Score ([4]; Day 57, individual dogs): 2 (3×) and 0 (4×)
- Clinical Score, group average ([4]; Day 57, Group 1 includes D21 data of Block 3 dog carried forward): 0.8
- Clinical Score ([4]; Day 184, individual dogs): 0
- Clinical Score, group average ([4]; Day 184): 0.1
- Clinical Score ([4]; Day 219, individual dogs): 0 (6×) and 1
- Clinical Score, group average ([4]; Day 219): 0.1
- Clinical Score ([4]; Day 254, individual dogs): 0 (7×) and 4
- Clinical Score, group average ([4]; Day 254): 0.5
- Clinical Score ([4]; Day 282, individual dogs): 0 (7×) and 2
- Clinical Score, group average ([4]; Day 282): 0.3
- Clinical Score ([4]; Day 310, individual dogs): 0 (6×) and 2
- Clinical Score, group average ([4]; Day 310): 0.3
- Clinical Score ([4]; Day 345, individual dogs): 0 (6×) and 2
- Clinical Score, group average ([4]; Day 345): 0.3
- Clinical Score ([4]; Day 400, individual dogs): 0 (5×) and 1 and 2
- Clinical Score, group average ([4]; Day 400): 0.4
- Clinical Score, group average ([4]; Day 436): 0.4
- Clinical Score, group average ([4]; Day −7 (before treatment)): 2.4
- Overall Biological Score ([5]; Day 28, individual dogs): 3 (2×) and 2 (2×) and 1 (2×) and 0 (2×)
- Overall Biological Score, group average ([5]; Day 28): 1.5
- Overall Biological Score ([5]; Day 57, individual dogs): 2 (3×) and 0 (3×) and 3 (2×)
- Overall Biological Score, group average ([5]; Day 57, Group 1 includes D28 data of Block 3 dog carried forward): 1.5
- Overall Biological Score ([5]; Day 181, individual dogs): 0 (5×) and 1 (2×) and 3
- Overall Biological Score, group average ([5]; Day 181, Group 1 includes D28 data of Block 3 dog carried forward): 0.6
- Overall Biological Score ([5]; Day −14 (pretreatment), individual dogs): 4 and 7 and 5 (2×) and 2 and 3 and 1 and 0
- Overall Biological Score, group average ([5]; Day −14 (pretreatment)): 3.4
- qPCR for L. infantum ([6]; Day 28, individual dogs): BLOQ (BLOQ = Below Level of Quantification = < log 3.64 copies/mL spleen aspirate)
- qPCR for L. infantum ([6]; Day 57, individual dogs): BLOQ (BLOQ = Below Level of Quantification = < log 3.64 copies/mL spleen aspirate)
- qPCR for L. infantum ([6]; Day 142, individual dogs): BLOQ (BLOQ = Below Level of Quantification = < log 3.64 copies/mL spleen aspirate)
- qPCR for L. infantum ([6]; Day 184, individual dogs): BLOQ (BLOQ = Below Level of Quantification = < log 3.64 copies/mL spleen aspirate)
- qPCR for L. infantum ([6]; Day 373, individual dogs): BLOQ (BLOQ = Below Level of Quantification = < log 3.64 copies/mL spleen aspirate) (7×) and 3.82 log copies/mL
- qPCR for L. infantum ([6]; Day −7 (before treatment), individual dogs): 7.19 log copies/mL and 7.11 log copies/mL and 5.21 log copies/mL and 5.57 log copies/mL and 6.58 log copies/mL and 5.81 log copies/mL and 6.01 log copies/mL and BLOQ (BLOQ = Below Level of Quantification = < log 3.64 copies/mL spleen aspirate)
- relapse ([7]; 180 days after treatment initiation): No relapse was observed
- cure of Leishmania infection ([7]; oral 60 mg/kg/day for 28 days, qPCR-confirmed, 60 mg/kg/day): can substantially or completely eliminate or cure L. infantum infection in canines; also recorded: sufficient to cure canines of leishmania parasites; also recorded: complete curing efficacy
